The values that follow come from patent US20240083886A1, “HETEROCYCLIC GLP-1 AGONISTS” (Gasherbrum Bio, Inc., priority 2020, published 2024).

Where two headings read alike, the source gives them in different places.

The assay has as its target GLP-1 Receptor (Homo sapiens, UniProt P43220). Description: GLP-1R agonist cAMP stimulation assay. Format: cell-based. The procedure:
Activation of GLP-1 receptor is known to stimulate cyclic AMP (cAMP) production in cells which indicates primary coupling to the Gαs subunit of the G protein heterotrimeric complex.
To optimize functional activity directed toward Gαs coupling, a HEK293/CRE-Luc cell line developed by HDB stably expressing the GLP-1 Receptor was used. 200× concentration of compound working solutions were prepared (Agilent Technologies Bravo) with ½ log serial dilution in 384-well Echo LDV plate (Labcyte, Cat #LP-0200). 50 nL/well 200× concentration of compound working solutions were moved to 384-well white low volume plate (Greiner, Cat #784075) using Labcyte ECHO550. 1×10^5 cells/mL HEK293/GLP1R/CRE-LUC(HD Biosciences) cell suspensions prepared with assay buffer[DPBS containing 0.5 mM IBMX(Sigma, Cat #15879) and 0.1% BSA (GENVIEW, Cat #FA016-100 g)], 10 uL cell suspensions were added to each well of previous generated assay plate which already contains 50 nl compound at 200×concentration using ThermoFisher Multidrop Combi (1000 cells/well). Seal the plate and incubate at 37° C. with 5% CO2 for 30 min.
After incubation the cAMP assay signal was generated using cAMP dynamic 2 Kit (Cisbio). 5 μL cAMP-d2 working solution was added to each well, followed with 5 μL Anti-cAMP antibody-cryptate working solution added to each well using ThermoFisher Multidrop Combi. Incubate at room temperature for 1 hour protected from light. Read the fluorescence at 665 and 615 nm with Reader PerkinElmer EnVision.
% Activity=100%×(mean RLU of test sample−mean RLU of vehicle control)/(mean RLU of MAX control−mean RLU of vehicle control))

The mark [1] stands for this setting: HEK293/GLP1R/CRE-LUC cells, cAMP dynamic 2 Kit (Cisbio), 30 min incubation at 37° C., read-out: EC50.

Chain of GLP-1 Receptor (P43220 24-463, species assumed): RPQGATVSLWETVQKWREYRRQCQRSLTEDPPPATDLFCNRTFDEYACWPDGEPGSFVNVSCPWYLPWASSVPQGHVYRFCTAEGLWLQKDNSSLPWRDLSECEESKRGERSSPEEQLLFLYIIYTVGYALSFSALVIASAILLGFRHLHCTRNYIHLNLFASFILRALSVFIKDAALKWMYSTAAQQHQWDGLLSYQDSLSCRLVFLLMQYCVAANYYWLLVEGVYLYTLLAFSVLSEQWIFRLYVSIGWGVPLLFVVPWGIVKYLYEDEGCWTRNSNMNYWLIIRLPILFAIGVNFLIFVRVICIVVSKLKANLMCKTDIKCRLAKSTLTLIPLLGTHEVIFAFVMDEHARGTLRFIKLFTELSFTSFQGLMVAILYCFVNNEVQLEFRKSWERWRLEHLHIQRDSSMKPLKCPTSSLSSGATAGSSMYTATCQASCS

For the compound `O=c1[nH]c(-c2cnc3c(c2)nc(CN2CCC(Oc4ccnc(Cc5ccc(Cl)cc5)n4)CC2)n3C[C@@H]2CCO2)no1` [Compound 144a, 3-(2-{[4-({2-[(4-chlorophenyl)methyl]pyrimidin-4-yl}oxy)piperidin-1-yl]methyl}-3-{[(2S)-oxetan-2-yl]methyl}-3H-imidazo[4,5-b]pyridin-6-yl)-4,5-dihydro-1,2,4-oxadiazol-5-one], under setting [1], the EC50 worked out at 1800 pM. Regarding `O=C(Nc1ccc2c(c1)nc(CN1CCC(Oc3ccnc(Cc4ccc(Cl)cc4)n3)CC1)n2C[C@@H]1CCO1)c1cccnc1` [Compound 102a, N-(2-{[4-({2-[(4-chlorophenyl)methyl]pyrimidin-4-yl}oxy)piperidin-1-yl]methyl}-1-{[(2S)-oxetan-2-yl]methyl}-1H-1,3-benzodiazol-5-yl)pyridine-3-carboxamide], the EC50 under setting [1] was 310 pM. With `Fc1cc(Cl)ccc1Cc1nccc(OC2CCN(Cc3nc4cc(-c5nnc[nH]5)ncc4n3C[C@@H]3CCO3)CC2)n1` [Compound 166a, 2-[(4-chloro-2-fluorophenyl)methyl]-4-({1-[(3-{[(2S)-oxetan-2-yl]methyl}-6-(4H-1,2,4-triazol-3-yl)-3H-imidazo[4,5-c]pyridin-2-yl)methyl]piperidin-4-yl}oxy)pyrimidine], a half-maximal response (EC50) required 1800 pM. For the compound `Fc1cnc(Cc2ccc(Cl)cc2)nc1OC1CCN(Cc2nc3cc(-c4nnc(C(F)(F)F)[nH]4)cnc3n2C[C@@H]2CCO2)CC1` [Compound 121a, 2-[(4-chlorophenyl)methyl]-5-fluoro-4-({1-[(3-{[(2S)-oxetan-2-yl]methyl}-6-[5-(trifluoromethyl)-4H-1,2,4-triazol-3-yl]-3H-imidazo[4,5-b]pyridin-2-yl)methyl]piperidin-4-yl}oxy)pyrimidine], under setting [1], the EC50 stood at 500 pM. The same measure, in the same setting: to `COC1(Cn2c(CN3CCC(Oc4cccc(Cc5ccc(Cl)cc5F)n4)CC3)nc3cc(-c4nnc(C(F)(F)F)[nH]4)ncc32)CC1` [Compound 192, 2-[(4-chloro-2-fluorophenyl)methyl]-6-{[1-({3-[(1-methoxycyclopropyl)methyl]-6-[5-(trifluoromethyl)-4H-1,2,4-triazol-3-yl]-3H-imidazo[4,5-c]pyridin-2-yl}methyl)piperidin-4-yl]oxy}pyridine] belongs 4000 pM; to `Fc1cc(Cl)ccc1Cc1ccc(F)c(OC2CCN(Cc3nc4cc(-c5nnc(C(F)(F)F)[nH]5)ncc4n3C[C@@H]3CCO3)CC2)n1` [Compound 164a, 6-[(4-chloro-2-fluorophenyl)methyl]-3-fluoro-2-({1-[(3-{[(2S)-oxetan-2-yl]methyl}-6-[5-(trifluoromethyl)-4H-1,2,4-triazol-3-yl]-3H-imidazo[4,5-c]pyridin-2-yl)methyl]piperidin-4-yl}oxy)pyridine], 350 pM; to `O=C(Nc1ccc2c(c1)nc(CN1CCC(Oc3ccnc(Cc4ccc(Cl)cc4F)n3)CC1)n2C[C@@H]1CCO1)c1ccc(-c2ccccc2)nc1` [Compound 119a, N-(2-{[4-({2-[(4-chloro-2-fluorophenyl)methyl]pyrimidin-4-yl}oxy)piperidin-1-yl]methyl}-1-{[(2S)-oxetan-2-yl]methyl}-1H-1,3-benzodiazol-5-yl)-6-phenylpyridine-3-carboxamide], 43000 pM.

`O=c1[nH]c(-c2cc3nc(CN4CCC(Oc5ccnc(Cc6ccc(Cl)cc6)n5)CC4)n(C[C@@H]4CCO4)c3cn2)no1` [Compound 145a, 3-(2-{[4-({2-[(4-chlorophenyl)methyl]pyrimidin-4-yl}oxy)piperidin-1-yl]methyl}-3-{[(2S)-oxetan-2-yl]methyl}-3H-imidazo[4,5-c]pyridin-6-yl)-4,5-dihydro-1,2,4-oxadiazol-5-one]: the EC50 under setting [1] came out at 82 pM. As for `CC(C)c1ccc(C(=O)Nc2ccc3c(c2)nc(CN2CCC(Oc4ccnc(Cc5ccc(Cl)cc5F)n4)CC2)n3C[C@@H]2CCO2)cn1` [Compound 116a, N-(2-{[4-({2-[(4-chloro-2-fluorophenyl)methyl]pyrimidin-4-yl}oxy)piperidin-1-yl]methyl}-1-{[(2S)-oxetan-2-yl]methyl}-1H-1,3-benzodiazol-5-yl)-6-(propan-2-yl)pyridine-3-carboxamide], the EC50 under setting [1] amounted to 11000 pM. As to `Fc1cc(Cl)ccc1Cc1cccc(OC2CCN(Cc3nc4cc(-c5nnc(C(F)(F)F)[nH]5)ccc4n3C[C@@H]3CCO3)CC2)n1` [Compound 137a, 2-{[4-({6-[(4-chloro-2-fluorophenyl)methyl]pyridin-2-yl}oxy)piperidin-1-yl]methyl}-1-{[(2S)-oxetan-2-yl]methyl}-5-[5-(trifluoromethyl)-4H-1,2,4-triazol-3-yl]-1H-1,3-benzodiazole], the EC50 under setting [1] was found to be 140 pM. On to `N#Cc1ccc(Cc2cccc(OC3CCN(Cc4nc5cc(-c6nnc(C(F)(F)F)[nH]6)ncc5n4C[C@@H]4CCO4)CC3)n2)c(F)c1` [Compound 190a, 3-fluoro-4-{[6-({1-[(3-{[(2S)-oxetan-2-yl]methyl}-6-[5-(trifluoromethyl)-4H-1,2,4-triazol-3-yl]-3H-imidazo[4,5-c]pyridin-2-yl)methyl]piperidin-4-yl}oxy)pyridin-2-yl]methyl}benzonitrile], for which, under setting [1], the EC50 is 240 pM. The compound `FC(F)(F)c1nnc(-c2cc3nc(CN4CCC(Oc5cccc(Cc6ccc(Cl)cc6)n5)CC4)n(C[C@@H]4CCO4)c3cn2)[nH]1` [Compound 140a, 2-[(4-chlorophenyl)methyl]-6-({1-[(3-{[(2S)-oxetan-2-yl]methyl}-6-[5-(trifluoromethyl)-4H-1,2,4-triazol-3-yl]-3H-imidazo[4,5-c]pyridin-2-yl)methyl]piperidin-4-yl}oxy)pyridine] displayed an EC50 of 1700 pM. On the same count and under the same terms, to `Cc1nnc(-c2cnc3c(c2)nc(CN2CCC(Oc4nc(Cc5ccc(Cl)cc5)ncc4F)CC2)n3C[C@@H]2CCO2)[nH]1` [Compound 162a, 2-[(4-chlorophenyl)methyl]-5-fluoro-4-[(1-{[6-(5-methyl-4H-1,2,4-triazol-3-yl)-3-{[(2S)-oxetan-2-yl]methyl}-3H-imidazo[4,5-b]pyridin-2-yl]methyl}piperidin-4-yl)oxy]pyrimidine] belongs 2900 pM. `Cn1cc(-c2ccc3c(c2)nc(CN2CCC(Oc4ccnc(Cc5ccc(Cl)cc5)n4)CC2)n3C[C@@H]2CCO2)nn1` [Compound 130a, 2-{[4-({2-[(4-chlorophenyl)methyl]pyrimidin-4-yl}oxy)piperidin-1-yl]methyl}-5-(1-methyl-1H-1,2,3-triazol-4-yl)-1-{[(2S)-oxetan-2-yl]methyl}-1H-1,3-benzodiazole] gave an EC50 of 790 pM. The same measure, in the same setting: to `N#Cc1nnc(-c2cc3nc(CN4CCC(Oc5nc(Cc6ccc(Cl)cc6F)ncc5F)CC4)n(C[C@@H]4CCO4)c3cn2)[nH]1` [Compound 193a, 5-(2-{[4-({2-[(4-chloro-2-fluorophenyl)methyl]-5-fluoropyrimidin-4-yl}oxy)piperidin-1-yl]methyl}-3-{[(2S)-oxetan-2-yl]methyl}-3H-imidazo[4,5-c]pyridin-6-yl)-4H-1,2,4-triazole-3-carbonitrile] belongs 24 pM. With `Fc1cc(Cl)ccc1Cc1nccc(OC2CCN(Cc3nc4cc(-c5nnc(C(F)(F)F)[nH]5)ncc4n3C[C@@H]3CCO3)CC2)n1` [Compound 138a, 2-[(4-chloro-2-fluorophenyl)methyl]-4-({1-[(3-{[(2S)-oxetan-2-yl]methyl}-6-[5-(trifluoromethyl)-4H-1,2,4-triazol-3-yl]-3H-imidazo[4,5-c]pyridin-2-yl)methyl]piperidin-4-yl}oxy)pyrimidine], under setting [1], the EC50 stood at 30 pM.

`Fc1cc(Cl)ccc1Cc1nccc(OC2CCN(Cc3nc4cc(-c5nnn[nH]5)ncc4n3C[C@@H]3CCO3)CC2)n1` [Compound 177a, 2-[(4-chloro-2-fluorophenyl)methyl]-4-({1-[(3-{[(2S)-oxetan-2-yl]methyl}-6-(1H-1,2,3,4-tetrazol-5-yl)-3H-imidazo[4,5-c]pyridin-2-yl)methyl]piperidin-4-yl}oxy)pyrimidine]: the EC50 under setting [1] is 130 pM. The same measure, in the same setting: to `O=C(O)c1ccc2c(c1)nc(CN1CCC(Oc3ccnc(Cc4ccc(Cl)cc4)n3)CC1)n2C[C@@H]1CCO1` [Compound 134a, 2-{[4-({2-[(4-chlorophenyl)methyl]pyrimidin-4-yl}oxy)piperidin-1-yl]methyl}-1-{[(2S)-oxetan-2-yl]methyl}-1H-1,3-benzodiazole-5-carboxylic acid] belongs 53 pM; to `Fc1cnc(Cc2ccc(Cl)cc2)nc1OC1CCN(Cc2nc3cc(-c4nnc(C(F)(F)F)[nH]4)ncc3n2C[C@@H]2CCO2)CC1` [Compound 149a, 2-[(4-chlorophenyl)methyl]-5-fluoro-4-({1-[(3-{[(2S)-oxetan-2-yl]methyl}-6-[5-(trifluoromethyl)-4H-1,2,4-triazol-3-yl]-3H-imidazo[4,5-c]pyridin-2-yl)methyl]piperidin-4-yl}oxy)pyrimidine], 56 pM; to `Cc1ccncc1C(=O)Nc1ccc2c(c1)nc(CN1CCC(Oc3ccnc(Cc4ccc(Cl)cc4)n3)CC1)n2C[C@@H]1CCO1` [Compound 105a, N-(2-{[4-({2-[(4-chlorophenyl)methyl]pyrimidin-4-yl}oxy)piperidin-1-yl]methyl}-1-{[(2S)-oxetan-2-yl]methyl}-1H-1,3-benzodiazol-5-yl)-4-methylpyridine-3-carboxamide], 5800 pM.
